Measurements taken from ChEMBL document CHEMBL5346924, “Optically activated MEK1/2 inhibitors (Opti-MEKi) as potential antimelanoma agents” (Eur J Med Chem, 2023).
Active and inactive are the calls of the source. No cut-off for these calls is given here.

Legend:
[1] = molecular target: Fibroblast growth factor receptor 1 (Homo sapiens) (UniProt P11362); assay: Inhibition of recombinant human FGFR1 at 1 uM
[2] = molecular target: RAC-alpha serine/threonine-protein kinase (Homo sapiens) (UniProt P31749); assay: Inhibition of recombinant human AKT1 at 1 uM
Sequence of RAC-alpha serine/threonine-protein kinase (Homo sapiens) (P31749 whole entry): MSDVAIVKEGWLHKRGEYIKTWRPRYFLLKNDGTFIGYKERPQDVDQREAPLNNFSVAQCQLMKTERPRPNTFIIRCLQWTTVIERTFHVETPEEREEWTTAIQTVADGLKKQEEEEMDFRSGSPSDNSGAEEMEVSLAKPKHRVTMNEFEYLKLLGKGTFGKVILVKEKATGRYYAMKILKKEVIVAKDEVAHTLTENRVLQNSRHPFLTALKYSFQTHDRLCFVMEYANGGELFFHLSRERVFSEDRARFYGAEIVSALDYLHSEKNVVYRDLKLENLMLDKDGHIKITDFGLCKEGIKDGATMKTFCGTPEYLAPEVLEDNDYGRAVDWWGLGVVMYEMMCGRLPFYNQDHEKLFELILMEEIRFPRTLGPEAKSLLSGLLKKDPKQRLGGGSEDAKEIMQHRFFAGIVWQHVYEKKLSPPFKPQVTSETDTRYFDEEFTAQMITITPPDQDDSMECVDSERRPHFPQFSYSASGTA

[3] = tested on: A-375; assay: Antiproliferative activity against human A-375 cells harboring BRAF V600E mutant assessed as cell growth inhibition incubated for 72 hrs in the absence of UV irradiation by CellTiter-Glo luminescent assay; format: functional; conditions: A-375, light or radiation study
[4] = molecular target: T1, Mitogen-activated protein kinase; ERK1/ERK2 (Homo sapiens, UniProt P27361+P28482); assay: Inhibition of ERK1/2 phosphorylation in human A-375 cells preincubated with compound for 1 hrs followed by 365 nm light irradiation for 5 mins and measured after 1 hrs compound treatment by Western blot analysis; format: cell-based; conditions: dose 1-100 nM, time 125.0 min
T1 sequence (P27361 whole entry, looked up): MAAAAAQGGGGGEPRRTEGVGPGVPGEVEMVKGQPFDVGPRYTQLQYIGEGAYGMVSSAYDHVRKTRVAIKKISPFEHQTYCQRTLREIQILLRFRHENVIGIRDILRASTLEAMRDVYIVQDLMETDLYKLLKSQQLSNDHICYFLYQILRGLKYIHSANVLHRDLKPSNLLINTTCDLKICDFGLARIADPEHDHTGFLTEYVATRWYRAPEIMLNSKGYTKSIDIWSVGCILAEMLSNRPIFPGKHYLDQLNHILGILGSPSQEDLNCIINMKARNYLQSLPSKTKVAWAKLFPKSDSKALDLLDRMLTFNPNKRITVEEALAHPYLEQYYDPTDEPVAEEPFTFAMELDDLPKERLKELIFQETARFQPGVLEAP
T1 sequence (P28482 whole entry, looked up): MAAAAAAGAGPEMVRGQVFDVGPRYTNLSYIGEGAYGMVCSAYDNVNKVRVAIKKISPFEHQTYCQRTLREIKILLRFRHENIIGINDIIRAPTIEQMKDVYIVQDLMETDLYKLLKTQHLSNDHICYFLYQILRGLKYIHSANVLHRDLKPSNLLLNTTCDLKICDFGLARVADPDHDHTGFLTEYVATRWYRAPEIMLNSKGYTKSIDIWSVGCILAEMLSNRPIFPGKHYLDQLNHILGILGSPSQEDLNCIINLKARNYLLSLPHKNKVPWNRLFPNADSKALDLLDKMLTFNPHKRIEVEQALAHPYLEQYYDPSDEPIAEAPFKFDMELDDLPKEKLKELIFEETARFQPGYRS

[5] = molecular target: CYP3A4 (Homo sapiens, UniProt P08684); assay: Inhibition of CYP3A4 in human microsomes at 10 uM in the presence of NADPH relative to control; format: ADME, Microsome
Sequence of CYP3A4 (P08684 whole entry): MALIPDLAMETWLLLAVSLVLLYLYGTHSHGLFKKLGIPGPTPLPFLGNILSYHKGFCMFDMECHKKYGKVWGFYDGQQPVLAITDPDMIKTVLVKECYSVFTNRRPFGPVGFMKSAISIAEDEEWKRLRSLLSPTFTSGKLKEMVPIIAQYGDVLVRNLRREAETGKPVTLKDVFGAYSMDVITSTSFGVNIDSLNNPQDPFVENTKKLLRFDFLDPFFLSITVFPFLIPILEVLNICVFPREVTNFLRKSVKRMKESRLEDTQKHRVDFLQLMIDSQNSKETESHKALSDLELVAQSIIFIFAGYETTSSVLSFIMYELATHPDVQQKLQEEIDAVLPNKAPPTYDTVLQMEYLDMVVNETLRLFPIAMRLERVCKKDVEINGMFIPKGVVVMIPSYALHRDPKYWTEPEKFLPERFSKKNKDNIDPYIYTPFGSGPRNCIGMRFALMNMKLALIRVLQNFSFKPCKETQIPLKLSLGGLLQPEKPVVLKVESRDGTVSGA

[6] = tested on: A-375; assay: Antiproliferative activity against human A-375 cells harboring BRAF V600E mutant assessed as cell growth inhibition preincubated with compound for 1 hrs followed by UV irradiation for 3 mins and measured 72 hrs post compound treatment by CellTiter-Glo luminescent assay; format: functional; conditions: A-375, light or radiation study
[7] = tested on: HCT-116; assay: Antiproliferative activity against human HCT-116 cells harboring KRAS G13D mutant assessed as cell growth inhibition incubated for 72 hrs in the absence of UV irradiation by CellTiter-Glo luminescent assay; format: functional; conditions: HCT-116, light or radiation study
[8] = tested on: A-375; assay: Inhibition of MEK/ERK/RSK signaling in human A-375 cells assessed as inhibition of ERK phosphorylation at 5 nM in the presence of 365 nm light irradiation for 30 sec to 5 min by Western blot analysis; format: cell-based
[9] = molecular target: T1, Mitogen-activated protein kinase; ERK1/ERK2; assay: Inhibition of ERK1/2 phosphorylation in human A-375 cells upto 10 uM incubated for 1 hrs in the absence of UV irradiation by Western blot analysis; format: cell-based
[10] = molecular target: Dual specificity mitogen-activated protein kinase kinase 1 (Homo sapiens, UniProt Q02750); assay: Inhibition of MEK1 (unknown origin) incubated for 1 hrs in the presence of ATP by FRET-based Z'-Lyte assay
Sequence of Dual specificity mitogen-activated protein kinase kinase 1 (Q02750 whole entry): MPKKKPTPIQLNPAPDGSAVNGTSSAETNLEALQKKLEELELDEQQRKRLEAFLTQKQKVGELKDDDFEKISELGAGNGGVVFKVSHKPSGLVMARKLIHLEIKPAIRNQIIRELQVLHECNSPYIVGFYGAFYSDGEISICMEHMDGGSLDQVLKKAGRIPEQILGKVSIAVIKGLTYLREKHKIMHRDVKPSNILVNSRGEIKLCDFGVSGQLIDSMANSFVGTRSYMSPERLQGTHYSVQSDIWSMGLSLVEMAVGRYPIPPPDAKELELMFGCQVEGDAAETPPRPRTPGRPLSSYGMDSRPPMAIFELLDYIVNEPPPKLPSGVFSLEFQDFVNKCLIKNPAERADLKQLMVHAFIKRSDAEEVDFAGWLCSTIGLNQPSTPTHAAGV

[11] = tested on: A549; assay: Antiproliferative activity against human A549 cells harboring KRas […] mutant assessed as cell growth inhibition preincubated with compound for 1 hrs followed by UV irradiation for 5 mins and measured 72 hrs post compound treatment by CellTiter-Glo luminescent assay; format: functional; conditions: A549, light or radiation study
[12] = Metabolic stability in human liver microsomes assessed as half-life in the presence of NADPH regenerating system; format: ADME, Microsome

Sequence of Fibroblast growth factor receptor 1 (Homo sapiens) (P11362 22-822 limits assumed): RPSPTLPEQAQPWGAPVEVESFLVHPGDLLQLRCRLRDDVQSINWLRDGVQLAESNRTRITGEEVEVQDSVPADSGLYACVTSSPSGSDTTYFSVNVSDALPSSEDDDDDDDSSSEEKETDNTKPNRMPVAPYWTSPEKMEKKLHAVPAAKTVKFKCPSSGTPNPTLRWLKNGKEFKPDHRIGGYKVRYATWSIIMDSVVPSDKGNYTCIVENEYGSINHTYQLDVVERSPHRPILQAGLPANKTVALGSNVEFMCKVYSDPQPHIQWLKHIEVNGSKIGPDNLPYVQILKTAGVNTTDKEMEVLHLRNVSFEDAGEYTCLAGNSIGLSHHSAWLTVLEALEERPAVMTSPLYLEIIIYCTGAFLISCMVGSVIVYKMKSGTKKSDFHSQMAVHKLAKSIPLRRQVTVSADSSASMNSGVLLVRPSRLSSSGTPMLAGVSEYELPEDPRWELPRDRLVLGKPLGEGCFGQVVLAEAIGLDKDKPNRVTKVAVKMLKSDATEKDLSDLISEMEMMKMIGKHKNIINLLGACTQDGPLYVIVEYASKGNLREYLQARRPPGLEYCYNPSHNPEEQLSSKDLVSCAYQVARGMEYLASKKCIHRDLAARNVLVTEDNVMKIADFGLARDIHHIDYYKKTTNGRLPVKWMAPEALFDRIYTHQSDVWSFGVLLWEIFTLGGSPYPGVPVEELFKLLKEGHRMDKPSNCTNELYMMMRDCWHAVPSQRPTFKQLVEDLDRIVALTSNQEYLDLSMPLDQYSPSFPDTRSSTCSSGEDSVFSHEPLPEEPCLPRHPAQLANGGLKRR

inhibition [1]: inactive
inhibition [2]: inactive
GI50 [3]: 12.7 µM
inhibition [4]: Dose-Dependent Effect
inhibition at 10 µM [5]: 92.4%
GI50 [6]: 0.00295 µM
GI50 [7]: > 10 µM
inhibition [9]: inactive
IC50 [10]: > 30 µM
GI50 [11]: 0.0278 µM
half-life [12]: 24.2 min
Structure (SMILES): COc1cc(C(C)O/C(=N\OC[C@H](O)CO)c2ccc(F)c(F)c2Nc2ccc(I)cc2F)c([N+](=O)[O-])cc1OC (some centres not stated)
inhibition [8]: Active
